According to patent US10533228B2, “3.beta-hydroxysteroid dehydrogenase in steroid dependent disease” (THE CLEVELAND CLINIC FOUNDATION, priority 2013, dated 2020):

Assays:
[1] = biological target: T1, 3βHSD1(367T) (Homo sapiens, UniProt P14060); assay: Enzyme kinetics of DHEA metabolism, recombinant enzyme in yeast microsomes; format: biochemical; settings: Michaelis-Menten plot
T1 construct: made in house; host or cells: Saccharomyces cerevisiae W303B (microsomes)
T1 sequence (P14060 2-373): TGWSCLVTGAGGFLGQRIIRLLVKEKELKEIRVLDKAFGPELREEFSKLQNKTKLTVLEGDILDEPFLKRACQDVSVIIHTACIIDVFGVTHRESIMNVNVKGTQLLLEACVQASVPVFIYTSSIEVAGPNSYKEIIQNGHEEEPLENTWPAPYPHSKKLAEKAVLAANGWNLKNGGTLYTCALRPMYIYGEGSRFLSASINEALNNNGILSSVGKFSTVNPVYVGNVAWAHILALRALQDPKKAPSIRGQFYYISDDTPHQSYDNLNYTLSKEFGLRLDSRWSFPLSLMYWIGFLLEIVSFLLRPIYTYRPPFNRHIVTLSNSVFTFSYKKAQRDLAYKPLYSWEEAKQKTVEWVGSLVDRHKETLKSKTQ
Protocol: (§1) Recombinant human 3βHSD1 was expressed in S cerevisciae strain W303B using yeast vector V10-3βHSD1 for wild-type and 367T proteins, and microsomes were prepared as described. Li et al., 2012. Incubations containing [^3H]-DHEA (0.5-40 μM, 100,000 cpm) and 25 μg microsomal protein in 0.25 ml of 50 mM potassium phosphate (pH 7.4) were pre-incubated at 37° C. for 1 min before initiating the reaction with NAD (0.1 mM). After 20 min at 37° C., the steroids were extracted with 1 ml dichloromethane, concentrated, and resolved on an Agilent 1260 HPLC equipped with a Kinetex 2.1×100 mm, 2.6 μm C18 reverse-phase column (Phenomenex, Torrance, Calif.) using methanol-water gradients at 0.4 ml/min. The column effluent was analyzed with a β-RAM4 (LabLogic) in-line scintillation counter and Bio-SafeII cocktail (Research Products International). Means of triplicate determinations were plotted as v versus [S], and kinetic constants Km and Vmax were obtained by fitting the data to the Michaelis-Menten equation using Origin version 7.5.

[2] = biological target: T2, 3βHSD1(367N) (Homo sapiens, UniProt P14060, T367N); assay: as above; format: biochemical; settings: Michaelis-Menten plot
T2 construct: made in house; host or cells: Saccharomyces cerevisiae W303B (microsomes)
T2 sequence (P14060 1-373 T367N): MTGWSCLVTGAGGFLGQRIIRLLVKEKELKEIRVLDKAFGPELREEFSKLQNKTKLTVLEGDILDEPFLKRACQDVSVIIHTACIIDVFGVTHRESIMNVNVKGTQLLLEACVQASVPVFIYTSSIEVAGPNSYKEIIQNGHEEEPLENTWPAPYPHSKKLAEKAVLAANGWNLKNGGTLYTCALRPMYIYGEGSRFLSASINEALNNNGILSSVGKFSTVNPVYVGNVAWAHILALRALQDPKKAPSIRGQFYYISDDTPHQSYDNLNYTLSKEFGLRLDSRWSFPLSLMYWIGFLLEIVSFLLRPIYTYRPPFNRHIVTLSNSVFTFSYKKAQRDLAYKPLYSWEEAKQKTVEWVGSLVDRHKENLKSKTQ
Protocol: as §1

[3] = test system: PSA and TMPRSS2 expression; assay: AR-regulated gene expression by qPCR in LAPC4; format: cell-based, human; settings: LAPC4, qPCR normalized to RPLP0 and vehicle
Protocol: (§2) Gene expression. To accurately quantitate each gene transcript, qPCR was performed as previously described. Chang et al., 2011. Briefly, the iTaq SYBR Green Supermix with ROX kit (Bio-Rad, Hercules, Calif.) was applied for the thermocycling reaction in an ABI-7500 Real-Time PCR machine (Applied Biosystems, Foster City, Calif.). Total RNA (1 μg) collected by RNeasy kit (QIAGEN) was used in a RT reaction with the iScript cDNA synthesis kit (Bio-Rad). The qPCR analysis was carried out in triplicate with the following primer sets: HSD3B1 (Forward: 5′-[…]-3′ (SEQ ID NO: 11); Reverse: 5′-[…]-3′ (SEQ ID NO: 12)), PSA (Forward: 5′-[…]-3′ (SEQ ID NO: 13); Reverse: 5′-[…]-3′ (SEQ ID NO: 14)), TMPRSS2 (Forward: 5′-[…]-3′ (SEQ ID NO: 15); Reverse: 5′-[…]-3′ (SEQ ID NO: 16)), the housekeeping gene large ribosomal protein P0 (RPLP0) (Forward: 5′-CGAGGGCACCTGGAAAAC-3′ (SEQ ID NO: 17); Reverse: 5′-CACATTCCCCCGGATATGA-3′ (SEQ ID NO: 18)) and GAPDH (Forward: 5′-[…]-3′ (SEQ ID NO: 19); Reverse: 5′-[…]-3′ (SEQ ID NO: 20)). Each mRNA transcript was quantitated by normalizing the sample values to RPLP0 or GAPDH and to non-silencing control cells (for knockdown) or to vehicle treated cells (for steroid treated cells). All gene expression studies were repeated in independent experiments.

[4] = test system: PSA and TMPRSS2 expression; assay: AR-regulated gene expression by qPCR in LNCaP; format: cell-based, human; settings: qPCR normalized to RPLP0 and vehicle
Protocol: as §2

[5] = test system: LNCaP cells; assay: Steroid metabolism (flux from [3H]-DHEA to AD), HPLC; format: cell-based, human; settings: 100 nM, after 48 hours
Protocol: (§3) Steroid metabolism experiments were performed 12 hours after seeding cells by treatment with 1 mL serum-free medium containing [^3H]-labeled DHEA (100 nM, 300,000-600,000 cpm; PerkinElmer). Aliquots of medium were collected for up to 48 hours, treated with β-glucuronidase (1000 units; Sigma-Aldrich) at 65° C. for 4 hours. Deconjugated steroids were extracted, evaporated under nitrogen stream, dissolved in 50% methanol, injected on a Breeze 1525 system equipped with model 717 plus autoinjector (Waters Corp.) and steroid metabolites were separated on a Luna 150×3 mm, […] C18 reverse-phase column (Phenomenex). The column effluent was mixed with Liquiscint scintillation cocktail (National Diagnostics) and analyzed by a β-RAM model 3 in-line radioactivity detector (IN/US Systems). Steroid metabolism experiments with transient enzyme expression were performed with pCMV5-HSD3B1 (367N and 367T) constructs 24 hours after transfection and 12 hours after treatment with 25 μM cycloheximide (CHX). […]
(§4) Cells (300,000-400,000 cells per well) were plated in 12-well plates coated with poly-L-ornithine. […] The column effluent was mixed with Liquiscint scintillation cocktail (National Diagnostics, Atlanta, Ga.) and analyzed by a β-RAM model 3 in-line radioactivity detector (LabLogic, Brandon, Fla.). […]

[6] = test system: LAPC4 cells; assay: as above; format: cell-based, human; settings: LAPC4, 100 nM, after 48 hours
Protocol: as §3, §4

[7] = test system: 3βHSD; settings: cited from earlier work

Row | SMILES | Km [1] | Km [2] | PSA and TMPRSS2 expression [3] | PSA and TMPRSS2 expression [4] | [3H]-DHEA metabolized by 3βHSD enzymatic activity to AD [5] | [3H]-DHEA metabolized by 3βHSD enzymatic activity to AD [6] | inhibition of 3βHSD [7]
1 | C[C@]12CC[C@H](O)CC1=CC[C@@H]1[C@@H]2CC[C@]2(C)C(=O)CC[C@@H]12 [DHEA, dehydroepiandrosterone] | 7 µM | 32 µM | absence of DHEA concentration-dependent increases in AR-regulated PSA and TMPRSS2 | induces PSA and TMPRSS2 expression in a concentration-dependent manner | > 90% | approximately 10% | 
2 | CC(=O)O[C@H]1CC[C@@]2(C)C(=CC[C@@H]3[C@@H]2CC[C@]2(C)C(c4cccnc4)=CC[C@@H]32)C1 [abiraterone, abiraterone acetate] |  |  |  |  |  |  | weakly inhibits
